In PubChem BioAssay (NCI):
“And” between values parts separate entries of the source, which are not always exact repeats. Equal entries are not always repeated.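 1) Cells in 96-well plates. 2) Compound, 48 h, 5 concentrations. 3) Linear interpolation between surrounding doses. 4) Unreached endpoint = highest concentration. GI50: concentration for 50% inhibition of growth. Definition used: TGI = concentration required for complete inhibition of growth.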

How the values were obtained:
Test in all cases: NCI tumour cell line growth inhibition, 48 h
[1] = tested on: SNB-78 CNS
[2] = tested on: LXFL 529 NSCLC
[3] = tested on: DMS 273 small cell lung
[4] = tested on: XF 498 CNS
[5] = tested on: HOP-18 NSCLC
[6] = tested on: DMS 114 small cell lung
[7] = tested on: KM20L2 colon
[8] = tested on: RXF-631 renal
[9] = tested on: MDA-N
[10] = tested on: P388 leukemia
[11] = tested on: SN12K1 renal
[12] = tested on: P388/ADR leukemia

`COc1ccc2occ(CCC(=O)O)c2c1` was tested, and the TGI [1] was > 100 µM, the TGI [2] was > 100 µM and the TGI [3] was > 100 µM. The TGI [4] was > 100 µM, the TGI [5] was > 100 µM and the TGI [6] was > 100 µM. For the same compound, the TGI [7] was > 100 µM.

With `Cc1cn2c(=O)c3ncn(C4OC(CO)C(O)C4O)c3n(C)c2n1` (stereo not drawn) the TGI [1] was > 100 µM, the TGI [8] was > 100 µM and the TGI [2] was > 100 µM. For the same compound, the TGI [3] was > 100 µM, the TGI [5] was > 100 µM and the TGI [6] was > 100 µM. For the same compound, the TGI [7] was > 100 µM.

For `CCOC(=O)c1ccc(NC(=O)Oc2ccc3c(C)cc(=O)oc3c2)cc1`, the TGI [9] was > 100 µM.

`O=C1CCC2(c3ccc(Cl)cc3)Nc3ncccc3N12` (stereo not drawn) was tested, and the TGI [1] was > 100 µM, the TGI [2] was > 100 µM and the TGI [4] was > 100 µM. The TGI [6] was > 100 µM and the TGI [7] was > 100 µM.

`CCCCCCCCCCCCCC(=O)OCC(C[As](=O)(O)O)OC(=O)CCCCCCCCCCCCC` (stereo not drawn) was tested, and the TGI [1] was > 100 µM, the TGI [8] was > 100 µM and the TGI [2] was > 100 µM. The TGI [3] was > 100 µM, the TGI [4] was > 100 µM and the TGI [5] was > 100 µM. The TGI [6] was > 100 µM and the TGI [7] was > 100 µM.

Work on `COc1cc(C(=O)N2CCN(C=O)C2=S)cc(OC)c1OC` yielded a GI50 [9] of 17.9 µM and a TGI [9] of 34.5 µM.

In the case of `CC(C)(C)NNC(=O)CCn1[nH]c(=O)c(Cl)c(Cl)c1=O`, the TGI [8] is reported as > 100 µM, the TGI [2] is reported as > 100 µM and the TGI [3] is reported as > 100 µM. The TGI [4] was > 100 µM, the TGI [5] was > 100 µM and the TGI [6] was > 100 µM. The TGI [7] was > 100 µM.

For `CC(C)CCC1CC2C(=O)N(c3ccccc3)C(=O)C2c2[nH]c3ccccc3c21` (stereo not drawn), the TGI [1] was 25.6 µM, the TGI [8] was 13.8 µM and the TGI [2] was 20.2 µM. The TGI [3] was 2.72 µM, the TGI [4] was 6.08 µM and the TGI [5] was 21.6 µM. It also gave a TGI [6] of 2.81 µM.

In the case of `COC(=O)C[C@](O)(CCCC(C)(C)O)C(=O)O[C@@H]1C(OC)=C[C@]23CCCN2CCc2cc4c(cc2[C@H]13)OCO4`, the TGI [1] is reported as 0.285 µM, the TGI [3] is reported as < 0.0204 µM and the TGI [10] is reported as 0.0101 µM. The TGI [4] was 0.0391 µM, the TGI [5] was 0.418 µM and the TGI [9] was > 25 µM. For the same compound, the TGI [11] was 0.0481 µM, the TGI [6] was 0.0162 µM and the TGI [7] was 0.338 µM. The TGI [12] was 1.35 µM.

`CC(C)C(CCl)NC(=O)c1cccc(C(=O)N[C@H](CCl)C(C)C)n1` (stereo in doubt) was tested, and the TGI [1] was > 100 µM, the TGI [8] was > 100 µM and the TGI [2] was > 100 µM. The TGI [3] was > 100 µM, the TGI [4] was > 100 µM and the TGI [6] was > 100 µM. For the same compound, the TGI [7] was > 100 µM.

With `CC12C/C(=C\c3ccccc3)C(=O)C3C1CCCC32` the TGI [8] was > 100 µM, the TGI [2] was > 100 µM and the TGI [3] was > 100 µM. The TGI [4] was > 100 µM, the TGI [5] was > 100 µM and the TGI [6] was > 100 µM. The TGI [7] was > 100 µM.

In the case of `Nc1nc(Cl)cc(NCCCCCCCCNc2cc(Cl)nc(N)n2)n1`, the TGI [1] is reported as > 100 µM, the TGI [2] is reported as 27.1 µM and the TGI [3] is reported as > 100 µM. For the same compound, the TGI [4] was 13.7 µM, the TGI [5] was > 100 µM and the TGI [7] was > 100 µM.

Work on `CC(C)C1=CC23CCC4C(C)(C(=O)O)CCCC4(C)C2CC1C1C(=O)N(c2ccc(Cc4ccc(N5C(=O)C6C7CC8C9(C)CCCC(C)(C(=O)O)C9CCC8(C=C7C(C)C)C6C5=O)cc4)cc2)C(=O)C13` (stereo not drawn) yielded a TGI [9] of 24.8 µM.

In the case of `COc1cccc2c1C(=O)c1c(O)c3c(c(O)c1C2=O)C[C@@](O)(C(=O)CO)C[C@@H]3OC1CC(N)CC(C)O1` (stereo partly drawn), the GI50 [1] is reported as 0.085 µM, the TGI [1] is reported as 1.73 µM and 2.02 µM and the TGI [8] is reported as 0.9 µM. For the same compound, the TGI [2] was 0.951 µM, the GI50 [3] was 0.0134 µM and 0.0303 µM and the TGI [3] was 0.202 µM and 0.129 µM. For the same compound, the TGI [10] was 0.588 µM, the GI50 [4] was 0.0251 µM and 0.052 µM and the TGI [4] was 0.144 µM and 0.101 µM. The GI50 [5] was 0.0713 µM, the TGI [5] was 0.906 µM and 0.445 µM and the GI50 [9] was 0.0272 µM. For the same compound, the TGI [9] was 0.274 µM and 0.132 µM, the TGI [11] was 0.0846 µM and the GI50 [6] was 0.0238 µM and 0.0476 µM. For the same compound, the TGI [6] was 0.167 µM and 0.299 µM, the GI50 [7] was 0.0545 µM and the TGI [7] was 0.528 µM and 1.41 µM. The TGI [12] was 2.96 µM.

In the case of `COC(=O)C1c2cc3c(cc2C(OC2OC(C)C(OC)C(C)(OC)C2OC)CC1(C)O)C(=O)c1c(O)cc2c(c1C3=O)OC1OC2(C)C(O)C([N+](C)(C)[O-])C1O` (stereo not drawn), the TGI [9] is reported as 1.03 µM.

With `CCOC(=O)c1cnc2c(ccc3[nH]n(C)nc32)c1=O` the TGI [1] was 38.6 µM, the TGI [8] was > 100 µM and the TGI [2] was > 100 µM. The TGI [3] was 73.4 µM, the TGI [4] was > 100 µM and the TGI [5] was > 100 µM. For the same compound, the TGI [6] was > 100 µM and the TGI [7] was > 100 µM.
